Data: patent US6632826B1, “Carbocyclic HIV protease inhibitors” (priority 2001, dated 2003)
Like-named read-outs stand apart in the source and are kept apart here.

What was measured:
[1] = system: HIV-HXB2 in MT4 cells; experiment: Antiviral assay: protection of HIV-infected MT4 cells from cell death (MTT); format: cell-based; conditions: MT4 cells infected with HIV-HXB2, 5 days, concentration preserving cell viability by 50%
Method: Methods 20: 309-321]. The method is based on the ability of compounds to protect HIV-infected T lymphoblastoid cells (MT4 cells) from cell-death mediated by the infection. The endpoint of the assay was calculated as the concentration of compound at which the cell viability of the culture was preserved by 50% (‘50% inhibitory concentration’, IC50). The cell viability of a culture was determined by the uptake of soluble, yellow 3-[4,5-dimethylthiazol-2-yl]-2,5-diphenyltetrazolium bromide (MTT) and its reduction to a purple insoluble formazan salt. After solubilization, spectrophotometric methods were employed to measure the amount of formazan product. MT4 cells were prepared to be in logarithmic-phase growth and a total of 2×10^6 cells infected with either the wild type or site directed mutant clones of HIV-HXB2 at a multiplicity of approximately 0.0001 infectious units of virus per cell in a total volume of between 200-500 μl. The cells were incubated with virus for one hour at 37° C. then washed in 0.01 M phosphate buffered saline, pH 7.2, and resuspensed in culture medium for incubation in culture with serial dilutions of test compound. The culture medium used was RPMI 1640 without phenol red, supplemented with penicillin, streptomycin, L-glutamine and 10% fetal calf serum (GM 10).
Test compounds were prepared as 2 mM solutions in dimethyl sulphoxide (DMSO). Four replicate, serial 2-fold dilutions in GM10 were then prepared and 50 microlitre amounts placed in 96-well plates over a final concentration range of 625-1.22 nm. Fifty microlitres GM10 and 3.75×10^4 infected cells were then added to each well. Control cultures containing no cells (blank), uninfected cells (100% viability; 4 replicates) and infected cells without compound (total virus-mediated cell death; 4 replicates) were also prepared. The cultures were then incubated at 37° C. in a humidified atmosphere of 5% CO2 in air for 5 days.
A fresh solution of 5 mg/mL MTT was prepared in 0.01 M phosphate buffered saline, pH 7.2 and 20 μL added to each culture. The cultures were further incubated as before for 2 hours. They were then mixed by pipetting up and down, and 170 microlitres of Triton X-100 in acidified isopropanol (10% v/v Triton X-100 in 1:250 mixture of concentrated HCl in isopropanol) were added and the cultures were mixed again by pipetting up and down. When the formazan deposit was fully solubilised by further mixing, the absorbance (OD) of the cultures was measured at 540 nm and 690 nm wavelength (690 nm readings were used as blanks for artefacts between wells). The percent protection for each treated culture was then calculated from the equation: [formula]
The IC50 was then obtained from graph plots of percentage protection versus log10 drug concentration.

[2] = target: HIV-1 protease (Human immunodeficiency virus type 1 group M subtype B, UniProt P04585); experiment: HIV protease inhibition assay (quenched fluorogenic substrate, fluorescence energy transfer); conditions: crude HIV-1 protease from E. coli, pH 4.7, 2 hours at 37° C.
Method: HIV Protease Inhibition Assay
HIV protease inhibitory activity was assessed using an adaptation of the method of Matayoshi. et al. [Matayoshi E. D. et al (1990).
Crude HIV-1 protease was prepared from E. coli pPTΔN. Cultures were grown at 30° C. in M9 medium supplemented with 0.2% casamino acids, 100 μg/ml ampicillin and 25 μg/ml thiamine until OD600=0.5-0.6, and the temperature was raised to 42° C. to induce expression of the protease. After 1.5 hours, the cells were harvested and the pellets stored at −70° C. until required.
The protease was prepared by lysis of the cells in a French pressure cell followed by precipitation of the enzyme with ammonium sulfate at 30% saturation.
The assay buffer comprised 0.1M sodium acetate pH 4.7, 8 mM EDTA, 0.2 M NaCl.
Tubes were incubated for 2 hours at 37° C. and the reaction was terminated by the addition of 500 μl of a 2:1 mixture of DMSO: 50 mM Tricine pH 8.5. Fluorescence was measured in a fluorescence spectrophotometer, excitation λ=340 nm, emission λ=492 nm.

[3] = Human immunodeficiency virus 1, HXB2, MT4, 120 h

Structure (SMILES)	IC50 [1, 3]	IC50 ([2]; Enzyme IC50 (nM))	IC50 [1]	IC50 ([2]; read-out: Enzyme IC50)
COC1CCC(C[C@@H](O)[C@H](Cc2ccccc2)NC(=O)[C@@H](CSc2ccc3ccccc3c2)NS(C)(=O)=O)C(C(=O)NC(C)(C)C)C1 (stereo partly drawn) [Example 1, 2-{2-hydroxy-3-[2-methanesulfonylamino-3-(naphthalen-2-ylsulfanyl)-propionylamino]-4-phenyl-butyl}-5-methoxy-cyclohexanecarboxylic acid tert-butylamide]	29 nM	0.31 nM		
CO[C@H]1CC[C@@H](C(=O)NC(C)(C)C)C(C[C@@H](O)[C@H](Cc2ccccc2)NC(=O)[C@@H](CS(=O)(=O)c2ccc3ccccc3c2)NS(C)(=O)=O)C1 (stereo partly drawn) [Example 27, N-tert-Butyl-2-[2-hydroxy-3-[[N2-(methanesulfonyl)-S-(2-naphthyl)-D-cysteinyl]amino]-4-phenylbutyl]-4-methoxy-1-cyclohexanecarboxamide S,S-dioxide]	8.3 nM	0.2 nM		
CO[C@H]1CC[C@@H](C(=O)NC(C)(C)C)C(C[C@@H](O)[C@H](Cc2ccccc2)NC(=O)[C@@H](CSc2ccc3ccccc3c2)NS(C)(=O)=O)C1 (stereo partly drawn) [Example 7, N-tert-Butyl-[2-hydroxy-3-[[N2-(methanesulfonyl)-S-(2-naphthyl)-D-cysteinyl]amino]-4-phenylbutyl]-4-methoxy-1-cyclohexanecarboxamide]	35.8 nM	0.42 nM		
CC1CC(C[C@@H](O)[C@H](Cc2ccccc2)NC(=O)[C@@H](CS(=O)(=O)c2ccc3ccccc3c2)NS(C)(=O)=O)C(C(=O)NC(C)(C)C)C1 (stereo partly drawn) [Example 23, 2-{2-Hydroxy-3-[2-methanesulfonylamino-3-(naphthalene-2-sulfonyl)-propionylamino]-4-phenyl-butyl}-4-methyl-cyclopentanecarboxylic acid tert-butylamide]	13 nM	0.55 nM		
COC1CCC(C[C@@H](O)[C@H](Cc2ccccc2)NC(=O)[C@@H](C[S+]([O-])c2ccc3ccccc3c2)NS(C)(=O)=O)C(C(=O)NC(C)(C)C)C1 (stereo partly drawn) [Example 20, 2-{2-Hydroxy-3-[2-methanesulfonylamino-3-(naphthalene-2-sulfinyl)-propionylamino]-4-phenyl-butyl}-5-methoxy-cyclohexanecarboxylic acid tert-butylamide]			21 nM	0.2 nM
CC(C)(C)NC(=O)[C@@H]1CCCCC1C[C@@H](O)[C@H](Cc1ccccc1)NC(=O)[C@@H](CSc1cccc2ccccc12)NS(C)(=O)=O (stereo in doubt) [Example 13, 2-{2-Hydroxy-3-[2-methanesulfonylamino-3-(naphthalen-1-ylsulfanyl)-propionylamino]-4-phenyl-butyl}-cyclohexanecarboxylic acid tert-butylamide]		0.44 nM		
CC1CC(C[C@@H](O)[C@H](Cc2ccccc2)NC(=O)[C@@H](CSc2ccc3ccccc3c2)NS(C)(=O)=O)C(C(=O)NC(C)(C)C)C1 (stereo partly drawn) [Example 2, 2-{2-Hydroxy-3-[2-methanesulfonylamino-3-(naphthalen-2-ylsulfanyl)-propionylamino]-4-phenyl-butyl}-4-methyl-cyclopentanecarboxylic acid tert-butylamide]	230 nM	1.5 nM		
COC1CCC(C[C@@H](O)[C@H](Cc2ccccc2)NC(=O)[C@@H](CS(=O)(=O)c2cccc3ccccc23)NS(C)(=O)=O)C(C(=O)NC(C)(C)C)C1 (stereo partly drawn) [Example 29, 2-{2-Hydroxy-3-[2-methanesulfonylamino-3-(naphthalene-1-sulfonyl)-propionylamino]-4-phenyl-butyl}-5-methoxy-cyclohexanecarboxylic acid tert-butylamide]	73 nM	0.41 nM		
CC(C)(C)NC(=O)C1CCCCC1C[C@@H](O)[C@H](Cc1ccccc1)NC(=O)[C@@H](C[S+]([O-])c1cccc2ccccc12)NS(C)(=O)=O (stereo partly drawn) [Example 21, 2-{2-Hydroxy-3-[2-methanesulfonylamino-3-(naphthalene-1-sulfinyl)-propionylamino]-4-phenyl-butyl}-cyclohexanecarboxylic acid tert-butylamide]		0.31 nM		
COC1CCC(C[C@@H](O)[C@H](Cc2ccccc2)NC(=O)[C@@H](CSc2ccc3ccccc3c2)NS(C)(=O)=O)C(C(=O)NC(C)(C)C)C1 (stereo partly drawn) [Example 10, 2-{2-Hydroxy-3-[2-methanesulfonylamino-3-(naphthalen-2-ylsulfanyl)-propionylamino]-4-phenyl-butyl}-5-methoxy-cyclohexanecarboxylic acid tert-butylamide]		0.3 nM	28 nM	
CC1CC(C[C@@H](O)[C@H](Cc2ccccc2)NC(=O)[C@@H](C[S+]([O-])c2ccc3ccccc3c2)NS(C)(=O)=O)C(C(=O)NC(C)(C)C)C1 (stereo partly drawn) [Example 15, 2-{2-Hydroxy-3-[2-methanesulfonylamino-3-(naphthalene-2-sulfinyl)-propionylamino]-4-phenyl-butyl}-4-methyl-cyclopentanecarboxylic acid tert-butylamide]	27 nM	1.5 nM		
COC1CCC(C[C@@H](O)[C@H](Cc2ccccc2)NC(=O)[C@@H](C[S+]([O-])c2ccc3ccccc3c2)NS(C)(=O)=O)C(C(=O)NC(C)(C)C)C1 (stereo partly drawn) [Example 14, 2-{2-Hydroxy-3-[2-methanesulfonylamino-3-(naphthalene-2-sulfinyl)-propionylamino]-4-phenyl-butyl}-5-methoxy-cyclohexanecarboxylic Acid tert-Butylamide]	20.9 nM	0.2 nM		
COC1CCC(C[C@@H](O)[C@H](Cc2ccccc2)NC(=O)[C@@H](CS(=O)(=O)c2ccc3ccccc3c2)NS(C)(=O)=O)C(C(=O)NC(C)(C)C)C1 (stereo partly drawn) [Example 30, 2-{2-Hydroxy-3-[2-methanesulfonylamino-3-(naphthalene-2-sulfonyl)-propionylamino]-4-phenyl-butyl}-5-methoxy-cyclohexanecarboxylic acid tert-butylamide]	173 nM	0.6 nM		
